Laboratory results: patent publication US6696427B1, “Use of bisphosphonates for the prevention and treatment of infectious processes” (Jomaa Pharmaka GmbH, priority 1998, dated 2004)

System: γδ-T cells
Experiment: activatability of γδ-T cells in mononuclear cells isolated from blood of treated test subjects
Format: in vivo, human
Experimental: […] After the third infusion, a blood sample was taken from the subjects. The mononuclear cells were isolated from the blood. The activatability of the γδ-T cells was then tested. A full description is published in Jomaa et al. FEMS Immunol. Med. Microbiol. September 1999; 25(4); 371-8.
In contrast, cells from control subjects could be activated.

SMILES	γδ-T cell activation by antigens obtained from microorganisms (healthy test subjects, infusion of 90 mg at fortnightly intervals, blood sample after the third infusion, isolated mononuclear cells)	γδ-T cell activation by antigens obtained from microorganisms (test subjects, 1 mg per treatment, protocol from Example 1)
NCCC(O)(P(=O)(O)O)P(=O)(O)O [pamidronic acid, 3-amino-1-hydroxypropylidene-1,1-bisphosphonic acid]	no γδ-T cell activation	–
CCCCCN(C)CCC(O)(P(=O)(O)O)P(=O)(O)O [ibandronic acid, 3-methylpentylamino-1-hydroxypropylidene-1,1-bisphosphonic acid]	–	no γδ-T cell activation
